How the values were obtained:
[1] = biological target: T1, human neurokinin 2 (NK2) receptor (Homo sapiens, UniProt P21452); assay: Neurokinin NK2 receptor binding assay ([3H]-Neurokinin A, CHO cell membranes); conditions: for inhibition at 1 µM: 1 μM concentration
T1 construct: expressed in transfected cells; host or cells: Chinese hamster ovary (CHO) cells, G418 medium; membranes
T1 sequence (P21452 1-398): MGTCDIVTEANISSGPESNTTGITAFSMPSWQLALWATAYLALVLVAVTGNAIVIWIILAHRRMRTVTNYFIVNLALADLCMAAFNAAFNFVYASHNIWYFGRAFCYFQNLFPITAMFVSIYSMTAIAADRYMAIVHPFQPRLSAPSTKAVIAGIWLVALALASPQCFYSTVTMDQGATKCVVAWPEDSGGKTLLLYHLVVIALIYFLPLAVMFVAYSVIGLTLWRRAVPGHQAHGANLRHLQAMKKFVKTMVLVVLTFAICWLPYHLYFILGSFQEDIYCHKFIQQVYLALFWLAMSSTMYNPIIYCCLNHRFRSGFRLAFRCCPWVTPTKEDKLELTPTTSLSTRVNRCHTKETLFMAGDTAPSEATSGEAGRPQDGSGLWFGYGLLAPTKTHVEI
Description: (§1) Chinese Hamster ovary (CHO) cells transfected with the coding regions for the human neurokinin 1 (NK1) of the human neurokinin 2 (NK2) receptors are grown in Dulbecco's minimal essential medium supplemented with 10% fetal calf serum, 0.1 mM non-essential amino acids, 2 mM glutamine, 100 units/ml of penicillin and streptomycin, and 0.8 mg of G418/ml at 37° C. in a humidified atmosphere containing 5% CO2.
(§2) Cells are detached from T-175 flasks with a sterile solution containing 5 mM EDTA in phosphate buffered saline. Cells are harvested by centrifugation and washed in RPMI media at […] for 5 minutes. The pellet is resuspended in Tris-HCl (pH7.4) containing 1 uM phsphoramidon and 4 ug/ml of chymostatin at a cell density of 30×10^6 cells/ml. The suspension is then homogenized in a Brinkman Polytron (setting 5) for 30-45 seconds. The homogenate is centrifuged at 800×g for 5 min at […] to collect unbroken cells and nuclei. The supernatant is centrifuged in a Sorvall RC5C at 19,000 rpm ([…]) for 30 min at 4° C. The pellet is resuspended, an aliquot is removed for a protein determination (BCA) and washed again. The resulting pellet is stored at -80° C.
(§3) Binding is initiated by the addition of 100 μl of membrane (10-20 μg) containing the human NK-1 or NK-2 receptor in a final volume of 200 μl. After 40 minutes at room temperature, the reaction is stopped by rapid filtration onto Whatman GF/C filters which have been presoaked in 0.3% polyethylenimine. Filters are washed 2 times with 3 ml of 50 mM Tris-HCl (pH7.4). Filters are added to 6 mls of Ready-Safe liquid scintillation cocktail and quantified by liquid scintillation spectrometry in a LKB 1219 RackBeta counter. Non-specific binding is determined by the addition of either 1 μM of CP-99994 (NK1) or 1 μM SR-48968 (NK2) (both synthesized by the chemistry department of Schering-Plough Research Institute).

[2] = biological target: T2, human neurokinin 1 (NK1) receptor (Homo sapiens, UniProt P25103); assay: Neurokinin NK1 receptor binding assay ([3H]-Substance P, CHO cell membranes); conditions: for Ki: [3H]-Substance P 0.8 nM, Cheng and Prusoff
T2 construct: expressed in transfected cells; host or cells: Chinese hamster ovary (CHO) cells, G418 medium; membranes
Description: as §1, §2, §3

T2 sequence (P25103 whole entry): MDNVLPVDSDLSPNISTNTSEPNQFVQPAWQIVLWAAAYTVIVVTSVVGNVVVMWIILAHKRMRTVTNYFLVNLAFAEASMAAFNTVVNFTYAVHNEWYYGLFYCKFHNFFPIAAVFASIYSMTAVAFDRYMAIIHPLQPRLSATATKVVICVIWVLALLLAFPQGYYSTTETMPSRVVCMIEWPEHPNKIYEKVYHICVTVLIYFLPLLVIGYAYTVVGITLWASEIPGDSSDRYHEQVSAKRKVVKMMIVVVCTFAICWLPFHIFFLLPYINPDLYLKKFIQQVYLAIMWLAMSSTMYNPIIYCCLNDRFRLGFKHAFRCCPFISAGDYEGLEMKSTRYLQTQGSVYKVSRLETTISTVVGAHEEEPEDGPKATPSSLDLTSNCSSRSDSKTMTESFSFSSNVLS

inhibition at 1 µM [1] [%] | Ki [2] [nM] | Ki ([1]; [3H]-Neurokinin A 1.0 nM, Cheng and Prusoff) [nM] | inhibition at 1 µM ([2]; 1 μM concentration) [%] | Structure (SMILES)
24 | 136 | – | – | COC1(C[S+]([O-])c2ccccc2)CCN(CC(=O)N2CCN(Cc3cc(C(F)(F)F)cc(C(F)(F)F)c3)CC2c2ccc(Cl)c(Cl)c2)CC1 (stereo not drawn)
– | 30 | 175 | – | O=C(CNC1CCN(Cc2ccccc2)CC1)N1CCN(Cc2cccc(C(F)(F)F)c2)CC1c1ccc(Cl)c(Cl)c1 (stereo not drawn)
0 | – | – | 48 | Cc1cccc(C)c1N1CCN(CC(=O)N2CCN(Cc3cc(C(F)(F)F)cc(C(F)(F)F)c3)CC2c2ccccc2)CC1 (stereo not drawn)
